Laboratory results as given in patent publication US4769389A, “Oxygenated-alkyl derivatives of glutamic and aspartic acids with antagonistic activity to bio-active polypeptides and a method for their preparation” (priority 1985, dated 1988).
≈ marks a conversion by molar mass, not a printed value. Read-outs that look alike come from different tables or passages of the source.

What was measured:
guinea pig gall bladders = assay: Anti-CCK-8 activity on guinea-pig gallbladders in situ (in vivo); details: Cavia porcellus, iv; CCK-8 10 ng/kg i.v.; compound i.v.; read-out: ID50, anti-CCK-8 activity in situ
Protocol: In order to confirm the evidence of the studies in vitro, several of the more interesting compounds were tested in vivo with the use of guinea-pig gallbladders in situ.
The method used was that described by Ljungberg (Svensk. Farm. Tidskr. 69, 351-354, 1964).
Guinea-pigs having a weight of about 400 g anaesthetised with urethane were used; the substances being tested were administered intravenously (i.v.) into the jugular vein.
The responses of the gallbladder to the substances being tested were detected by means of a force transducer and recorded by means of a microdynamometer. 10 ng/kg of CCK 8 were chosen as the optimum contracting dose. The antagonistic compounds tested were administered in increasing doses so as to enable the calculation of an ID50 value, that is the dose (in mg/kg i.v.) having a 50% inhibiting effect against contractions induced by 10 ng/kg i.v. of CCK-8.

[1] = test system: pancreatic adenocarcinoma; assay: Inhibiting action on rate of growth of a pancreatic adenocarcinoma induced by CCK-8 in hamsters; assay type: in vivo; details: for effect on growth of a pancreatic adenocarcinoma: in words
From the text: (§1) Male hamsters were innoculated in the cheek pouch with a suspension of 1×10^5 tumour cells of a pancreatic adenocarcinoma.
(§2) Fifteen days after this treatment the animals were killed and the normal pancreas and the pancreatic tumours initiated in the cheek pouch were removed and weighed.
(§3) The DNA was extracted and measured by conventional methods.
(§4) The results obtained are given in Table 11 in which they are expressed as average values±S.E.

[2] = in vivo, sc
colon of rabbits = assay: Antispastic activity in the colon of rabbits stimulated with CCK-8; assay type: in vivo, rabbit; design: Antispastic activity in colon, EXPERIMENT 1 / Antispastic activity in colon, EXPERIMENT 2: unit not given here; details: CCK 100 ng/kg
Protocol: The abdomen of anaesthetised rabbit is cut open to display the tranverse colon. A small balloon full of water is inserted at an established point and connected to a pressure transducer by means of a polyethylene cannula filled with H2 O.
The optimum sensitivity being fixed in relation to the physiological contractions, the products were administered through the femeral vein. Contractions were induced by the administration of 100 ng/kg of CCK.

[3] = Tolerability in parenteral administration; details: i.v. sodium salt in water up to 1.5 percent, 10 ml/kg (150 mg/kg)
digestive tract = assay: Antispastic activity, vegetable carbon test (speed of transit through stomach and intestine) in mice; assay type: in vivo; details: Mus musculus, ip, read-out: A[…] ED50 (dose which reduces the intestinal transit time of the carbon by 50%), intraperitoneally
From the text: The anti-spastic activity which the present compounds exert on the whole of the digestive tract is also considerable. Measured in mice with the vegetable carbon test (speed of transit through the stomach and intestine) this activity is illustrated in the following table: […]

[4] = Body weight of rats treated daily by mouth for three weeks; assay type: in vivo
Protocol: (§5) The following tables give the average values of the food consumption and the average weight of each group of animals calculated weekly as well as the Student t value calculated between the various groups treated and the group of control animals. […] Each group received the drug (compound 1) in the doses indicated for three weeks daily by mouth. The drug in the form of the sodium salt was dissolved in water and administered in a volume of 10 ml of H2 O/kg while the control group received an equal volume of the solvent alone.

[5] = test system: pancreatitis in rats induced experimentally by taurocholate; assay: Pancreatitis induced by sodium taurocolate in rats; assay type: in vivo; details: for ED50: Rattus norvegicus, ip, taurocholate, rats
Protocol: The products under examination were administered intraperitoneally (i.p.) 30 minutes before the operation and 3 hours after the operation. Six hours after the laparatomy the blood was removed from the retro-orbitory plexus after anaesthesia with ether, the animals were killed and the pancreas was removed and weighed. The activity of the serum amylase was determined by the method described above.

guinea-pig gallbladder = assay: Anti-CCK activity on guinea-pig gallbladders in vitro (contraction by CCK-8); details: Cavia porcellus; CCK-8 10 ng/ml; in vitro
Protocol: ANTI-CCK ACTIVITY ON GUINEA-PIG GALLBLADDERS IN VITRO A longitudinal strip of guinea-pig gallbladder is placed in a bath for isolated organs in Krebs at a temperature of 32° C. and oxygenated continuously with an oxygen-CO2 mixture (95-[…]). The isometric contractions were detected by means of a force transducer and recorded. […] The results obtained are shown in Table 3 which gives the compounds tested and the IC50 values found which were calculated by the method of regression in a test of at least three experiments for each compound studied.

normal pancreatic cells = assay: Action on growth rate of normal pancreas induced by CCK-8 in hamsters; assay type: in vivo; details: for effect on normal pancreatic cells: in words
From the text: as §1, §2, §3, §4

[6] = Food consumption in rats treated daily by mouth for three weeks; assay type: in vivo
Protocol: as §5

[7] = test system: pancreatitis in mice induced experimentally by cerulein; assay: Pancreatitis induced by cerulein in mice; assay type: in vivo; details: for ED50: Mus musculus, ip, cerulein, mice
Protocol: Adult male mice received six injections of cerulein (Takus) (50 mcg/kg) each hour for six hours.
The compound was administered 30 minutes before each administration of cerulein. Nine hours after the beginning of the treatment, the blood was taken from the rectro-orbitory plexus after anaesthesia with ether, the animals were killed and the pancreas removed and weighed.

[8] = compound 1 4 mg/kg + CCK-8 8 mcg/kg
[9] = CCK-8 8 mcg/kg three times a day

In the case of `CCCCCN(CCCOC)C(=O)C(CCC(=O)O)NC(=O)c1ccc(Cl)c(Cl)c1` (racemic) [Compound 1], the ED50 (guinea pig gall bladders) is reported as 0.11 mg/kg, the “TUMORAL DNA” value ([1]; 4 mg/kg i.p. three times a day) is reported as 0.42 and the “WEIGHT OF THE PANCREATIC CARCINOMA” value ([1]; 4 mg/kg i.p. three times a day) is reported as 105.0 ± 4.1 mg. For the same compound, the “TUMORAL DNA” value [1, 8] was 0.44, the “WEIGHT OF THE PANCREATIC CARCINOMA” value [1, 8] was 108.8 ± 5.4 mg and the “effect on growth of a pancreatic adenocarcinoma” value [1] was “atagonises both these actions of CCK-8 to a highly significant extent”. For the same compound, the tissue damage [2] was “does not moreover give rise to tissue damage”, the “Antispastic activity in colon, EXPERIMENT 1” value (colon of rabbits; 0.3 mg/kg i.v.) was -20.8 and the “Antispastic activity in colon, EXPERIMENT 2” value (colon of rabbits; 0.3 mg/kg i.v.) was -34.1. For the same compound, the “Antispastic activity in colon, EXPERIMENT 1” value (colon of rabbits; 1 mg/kg i.v.) was -48.9, the “Antispastic activity in colon, EXPERIMENT 2” value (colon of rabbits; 1 mg/kg i.v.) was -55.6 and the “Antispastic activity in colon, EXPERIMENT 1” value (colon of rabbits; 3 mg/kg i.v.) was -100.0. For the same compound, the “Antispastic activity in colon, EXPERIMENT 2” value (colon of rabbits; 3 mg/kg i.v.) was -87.8, the ED50 (colon of rabbits; Oryctolagus cuniculus, iv) was 1.24 mg/kg and the haemolysis [3] was “without causing haemolysis”. It also gave an ED50 (digestive tract) of 12.8 mg/kg, a body weight ([4]; 0.625 mg/kg os, 1st week) of 216.9 ± 3.8 g and a body weight ([4]; 0.625 mg/kg os, 2nd week) of 267.5 ± 3.9 g. The body weight ([4]; 0.625 mg/kg os, 3rd week) was 324 ± 3.6 g, the body weight ([4]; 0.625 mg/kg os, time 0) was 169.3 ± 1.9 g and the body weight ([4]; 1.25 mg/kg os, 1st week) was 242.7 ± 4.9 g. For the same compound, the body weight ([4]; 1.25 mg/kg os, 2nd week) was 318.3 ± 4.4 g, the body weight ([4]; 1.25 mg/kg os, 3rd week) was 371 ± 5.6 g and the body weight ([4]; 1.25 mg/kg os, time 0) was 168.3 ± 1.1 g. It also gave a body weight ([4]; 2.5 mg/kg os, 1st week) of 241.6 ± 3.7 g, a body weight ([4]; 2.5 mg/kg os, 2nd week) of 325.2 ± 5.5 g and a body weight ([4]; 2.5 mg/kg os, 3rd week) of 374.9 ± 5.1 g. For the same compound, the body weight ([4]; 2.5 mg/kg os, time 0) was 165.8 ± 1.3 g, the “weight increase compared with control animals” value ([4]; all treated groups, from the first week, in words) was “significantly higher weight increase than the control animals” and the “AMYLASE IN THE SERUM” value ([5]; 5 mg/kg i.p. + taurocholate) was 10.4 U/ml. For the same compound, the “INHIBITION OF AMYLASE INCREASE” value ([5]; 5 mg/kg i.p. + taurocholate) was 47.0%, the “INHIBITION OF WEIGHT INCREASE” value ([5]; 5 mg/kg i.p. + taurocholate) was 46.1% and the “AMYLASE IN THE SERUM” value ([5]; 10 mg/kg i.p. + taurocholate) was 9.8 U/ml. The “INHIBITION OF AMYLASE INCREASE” value ([5]; 10 mg/kg i.p. + taurocholate) was 64.7%, the “INHIBITION OF WEIGHT INCREASE” value ([5]; 10 mg/kg i.p. + taurocholate) was 84.6% and the “AMYLASE IN THE SERUM” value ([5]; 20 mg/kg i.p. + taurocholate) was 7.8 U/ml. The “INHIBITION OF AMYLASE INCREASE” value ([5]; 20 mg/kg i.p. + taurocholate) was 123.5%, the “INHIBITION OF WEIGHT INCREASE” value ([5]; 20 mg/kg i.p. + taurocholate) was 107.7% and the ED50 ([5]; read-out: ED50, inhibition of amylase increase) was 7.3 mg/kg. For the same compound, the ED50 ([5]; read-out: ED50, inhibition of weight increase) was 6.9 mg/kg, the IC50 (guinea-pig gallbladder) was 0.1 µg/mL (≈ 0.217 µM) and the “PANCREATIC DNA” value (normal pancreatic cells; 4 mg/kg i.p. three times a day) was 0.78 ± 0.03 mg. The “WEIGHT OF THE PANCREAS” value (normal pancreatic cells; 4 mg/kg i.p. three times a day) was 351.2 ± 17.2 mg, the “PANCREATIC DNA” value (normal pancreatic cells; [8]) was 0.83 ± 0.06 mg and the “WEIGHT OF THE PANCREAS” value (normal pancreatic cells; [8]) was 370.2 ± 12.7 mg. The “effect on normal pancreatic cells” value (normal pancreatic cells) was “atagonises both these actions of CCK-8 to a highly significant extent”, the “increase in the food consumption compared with the controls” value ([6]; 0.625 mg/kg daily) was “about 20%” and the Food consumption ([6]; 0.625 mg/kg os, 1st week) was 187.1 ± 6.3 g/week. It also gave a Food consumption ([6]; 0.625 mg/kg os, 2nd week) of 220 ± 3.9 g/week, a Food consumption ([6]; 0.625 mg/kg os, 3rd week) of 242.5 ± 3.3 g/week and a Food consumption ([6]; 1.25 mg/kg os, 1st week) of 205 ± 4.6 g/week. It also gave a Food consumption ([6]; 1.25 mg/kg os, 2nd week) of 217.5 ± 3.8 g/week, a Food consumption ([6]; 1.25 mg/kg os, 3rd week) of 253.5 ± 2.4 g/week and a Food consumption ([6]; 2.5 mg/kg os, 1st week) of 209.2 ± 3.3 g/week. The Food consumption ([6]; 2.5 mg/kg os, 2nd week) was 222.2 ± 2.6 g/week, the Food consumption ([6]; 2.5 mg/kg os, 3rd week) was 270.7 ± 4.5 g/week and the “increase in the food consumption compared with the controls” value ([6]; other doses tested (1.25, 2.5 mg/kg)) was “about 30%”. For the same compound, the “AMYLASE IN THE SERUM” value ([7]; 5 mg/kg ip + cerulein) was 29.4 U/ml, the “INHIBITION OF WEIGHT INCREASE” value ([7]; 5 mg/kg ip + cerulein) was 76.9% and the “INHIBITION OF WEIGHT INCREASE (pancreas)” value ([7]; 5 mg/kg ip + cerulein) was 42.8%. For the same compound, the “AMYLASE IN THE SERUM” value ([7]; 7.5 mg/kg ip + cerulein) was 25.6 U/ml, the “INHIBITION OF WEIGHT INCREASE” value ([7]; 7.5 mg/kg ip + cerulein) was 81.6% and the “INHIBITION OF WEIGHT INCREASE (pancreas)” value ([7]; 7.5 mg/kg ip + cerulein) was 71.4%. For the same compound, the “AMYLASE IN THE SERUM” value ([7]; 10 mg/kg ip + cerulein) was 13.2 U/ml, the “INHIBITION OF WEIGHT INCREASE” value ([7]; 10 mg/kg ip + cerulein) was 97.1% and the “INHIBITION OF WEIGHT INCREASE (pancreas)” value ([7]; 10 mg/kg ip + cerulein) was 90.5%. The ED50 ([7]; read-out: ED50 (inhibition of weight increase)) was 4.2 mg/kg and the ED50 ([7]; read-out: ED50, inhibition of weight increase of the pancreas) was 5.5 mg/kg.

For “CCK-8: biologically active component of the hormone cholecystokinin [reference compound]”, the “TUMORAL DNA” value [1, 9] was 0.7, the “WEIGHT OF THE PANCREATIC CARCINOMA” value [1, 9] was 163.1 ± 4.7 mg and the “effect on growth of a pancreatic adenocarcinoma” value [1] was “stimulates the growth of a pancreatic adenocacinoma”. For the same compound, the “PANCREATIC DNA” value (normal pancreatic cells; [9]) was 1.5 ± 0.06 mg, the “WEIGHT OF THE PANCREAS” value (normal pancreatic cells; [9]) was 634.8 ± 20.8 mg and the “effect on normal pancreatic cells” value (normal pancreatic cells) was “has a trophic action on normal pancreatic cells”.
